In PubChem BioAssay AID330 (DTP/NCI, 2004):
“And” between values parts separate entries of the source, which are not always exact repeats. Equal values may be shown once. Inconclusive results and toxic doses are left out. How the source made its calls: active means survival T/C of 150% or more; inactive means T/C below 125% in these data.

System: P388 leukemia ip, CD2F1 mice, survival T/C
Experiment: NCI In Vivo Anticancer Drug Screen. Data for tumor model P388 Leukemia (intraperitoneal) in CD2F1 (CDF1) mice
Conditions: endpoint: median survival time, higher = longer survival
Experimental: The antitumor activity of compounds was measured in mice bearing transplantable tumors. Survival or tumor size were measured and the results are expressed as the measurement made in the treated group (T) divided by the measurement made in the vehicle treated control group (C). The tumor model used in this assay is P388 Leukemia (intraperitoneal) in CD2F1 (CDF1) mice

[1] = dose: 100.0 mg/kg/injection, schedule: Q01DX009 (ip), vehicle: saline
[2] = dose: 50.0 mg/kg/injection, schedule: Q01DX005 (ip), vehicle: Klucel (hydroxypropylcellulose) (HPC)
[3] = dose: 100.0 mg/kg/injection, schedule: Q01DX005 (ip), vehicle: Klucel (hydroxypropylcellulose) (HPC)
[4] = dose: 200.0 mg/kg/injection, schedule: Q01DX005 (ip), vehicle: Klucel (hydroxypropylcellulose) (HPC)
[5] = dose: 50.0 mg/kg/injection, schedule: Q01DX005 (ip), vehicle: saline with Tween-80
[6] = dose: 100.0 mg/kg/injection, schedule: Q01DX005 (ip), vehicle: saline with Tween-80
[7] = dose: 200.0 mg/kg/injection, schedule: Q01DX005 (ip), vehicle: saline with Tween-80
[8] = dose: 60.0 mg/kg/injection, schedule: Q01DX005 (ip), vehicle: Klucel (hydroxypropylcellulose) (HPC)
[9] = dose: 120.0 mg/kg/injection, schedule: Q01DX005 (ip), vehicle: Klucel (hydroxypropylcellulose) (HPC)
[10] = dose: 240.0 mg/kg/injection, schedule: Q01DX005 (ip), vehicle: Klucel (hydroxypropylcellulose) (HPC)
[11] = dose: 50.0 mg/kg/injection, schedule: Q01DX009 (ip), vehicle: saline with Tween-80
[12] = dose: 100.0 mg/kg/injection, schedule: Q01DX009 (ip), vehicle: saline with Tween-80
[13] = dose: 200.0 mg/kg/injection, schedule: Q01DX009 (ip), vehicle: saline with Tween-80

Measured: T/C

Cc1cccc(N2C(c3ccccc3)c3ccc(C)cc3NS2=O)c1 (stereo unspecified)
inactive: dose: 60.0 mg/kg/injection, schedule: Q01DX005 (ip), vehicle: saline with Tween-80 97 % of control | dose: 120.0 mg/kg/injection, schedule: Q01DX005 (ip), vehicle: saline with Tween-80 90 % of control | dose: 240.0 mg/kg/injection, schedule: Q01DX005 (ip), vehicle: saline with Tween-80 95 % of control

Clc1cc2[nH]ccc2c(Cl)n1
inactive: dose: 50.0 mg/kg/injection, schedule: Q01DX001 (ip), vehicle: saline with Tween-80 90 % of control | dose: 100.0 mg/kg/injection, schedule: Q01DX001 (ip), vehicle: saline with Tween-80 92 % of control

O=CN(CCO)CCO
inactive: dose: 50.0 mg/kg/injection, schedule: Q01DX005 (ip), vehicle: saline 107 % of control | dose: 100.0 mg/kg/injection, schedule: Q01DX005 (ip), vehicle: saline 94 % of control | dose: 200.0 mg/kg/injection, schedule: Q01DX005 (ip), vehicle: saline 114 % of control

C=CCc1c2[n+](cc3c(OC)c(OC)ccc13)CCc1cc3c(cc1-2)OCO3
inactive: dose: 0.4 mg/kg/injection, schedule: Q01DX005 (ip), vehicle: saline 107 % of control and 92 % of control | dose: 0.8 mg/kg/injection, schedule: Q01DX005 (ip), vehicle: saline 99 % of control and 111 % of control | dose: 1.6 mg/kg/injection, schedule: Q01DX005 (ip), vehicle: saline 100 % of control and 103 % of control

CC(C)NCC(O)COc1ccc(O)c(O)c1 (stereo unspecified)
inactive: dose: 25.0 mg/kg/injection, schedule: Q01DX009 (ip), vehicle: saline 100 % of control | [1] 123 % of control

CNc1cccnc1C1OCCO1
inactive: [2] 96 % of control | [3] 102 % of control | [4] 100 % of control

Cc1ccc2c(c1)nc1sc(C)cc(=O)n12
inactive: dose: 50.0 mg/kg/injection, schedule: Q01DX009 (ip), vehicle: Klucel (hydroxypropylcellulose) (HPC) 97 % of control | dose: 100.0 mg/kg/injection, schedule: Q01DX009 (ip), vehicle: Klucel (hydroxypropylcellulose) (HPC) 95 % of control | dose: 200.0 mg/kg/injection, schedule: Q01DX009 (ip), vehicle: Klucel (hydroxypropylcellulose) (HPC) 92 % of control

COc1ccc2c(=O)cc[nH]c2c1OC
inactive: [5] 100 % of control | [6] 94 % of control | [7] 94 % of control

CC(=O)N(Cc1ccccc1)c1nccs1
inactive: [5] 104 % of control | [6] 99 % of control | [7] 90 % of control

C=CCNC1=C2C[C@@H](C)C[C@H](OC)[C@H](O)[C@@H](C)/C=C(\C)[C@H](OC(N)=O)[C@@H](OC)/C=C\C=C(/C)C(=O)NC(=CC1=O)C2=O
inactive: dose: 6.25 mg/kg/injection, schedule: Q01DX009 (ip), vehicle: DMSO 108 % of control | dose: 6.25 mg/kg/injection, schedule: Q01DX009 (ip), vehicle: distilled water + Tween-80 112 % of control | dose: 12.5 mg/kg/injection, schedule: Q01DX009 (ip), vehicle: DMSO 100 % of control | dose: 12.5 mg/kg/injection, schedule: Q01DX009 (ip), vehicle: distilled water + Tween-80 112 % of control | dose: 25.0 mg/kg/injection, schedule: Q01DX009 (ip), vehicle: DMSO 107 % of control

CCC[CH2][GeH][CH2]CCC.CCC[CH2][Ge]([CH2]CCC)[CH2]CCC
inactive: dose: 50.0 mg/kg/injection, schedule: Q01DX009 (ip), vehicle: saline 98 % of control | [1] 88 % of control | dose: 200.0 mg/kg/injection, schedule: Q01DX009 (ip), vehicle: saline 98 % of control

Brc1ccc2nc3ccccc3c(SCCCCCCSc3c4ccccc4nc4ccc(Br)cc34)c2c1
inactive: [8] 87 % of control and 93 % of control | [9] 89 % of control | [10] 91 % of control

CCCCN1C(=O)/C(=C/c2ccc(OC)cc2)SC1=S
inactive: [11] 100 % of control | [12] 94 % of control | [13] 90 % of control

Cc1cc(Br)ccc1N1CSC(=S)N(c2ccc(Br)cc2C)C1
inactive: [5] 88 % of control | [6] 90 % of control | [7] 93 % of control

CC1(C)OC1C1CC(C2CCC3(C)C4=CCC5C(C)(C)C(=O)CCC5(C)C4CCC23C)C(O)O1 (stereo unspecified)
inactive: dose: 1.5 mg/kg/injection, schedule: Q01DX009 (ip), vehicle: Klucel (hydroxypropylcellulose) (HPC) 90 % of control | dose: 3.0 mg/kg/injection, schedule: Q01DX009 (ip), vehicle: Klucel (hydroxypropylcellulose) (HPC) 94 % of control | dose: 6.0 mg/kg/injection, schedule: Q01DX009 (ip), vehicle: Klucel (hydroxypropylcellulose) (HPC) 103 % of control | dose: 12.0 mg/kg/injection, schedule: Q01DX009 (ip), vehicle: Klucel (hydroxypropylcellulose) (HPC) 100 % of control

Nc1ncnc2nc(/N=N/SCCC(=O)O)[nH]c12
inactive: [5] 108 % of control | [6] 103 % of control | [7] 100 % of control

CCOC(=O)C1=C(C)NC(C)=C(C(=O)OCC)C1c1ccc(Cl)cc1
inactive: [11] 88 % of control | [12] 94 % of control | [13] 95 % of control | dose: 400.0 mg/kg/injection, schedule: Q01DX009 (ip), vehicle: saline with Tween-80 93 % of control

CNC(=S)P(c1ccccc1)c1ccccc1
inactive: [2] 105 % of control | [3] 96 % of control | [4] 105 % of control

O=c1c2ccccc2c(=O)c2c1cc(Cl)c1[nH]c3c([nH]c12)c(Cl)cc1c(=O)c2ccccc2c(=O)c13
inactive: [2] 97 % of control | [3] 96 % of control | [4] 94 % of control

CC(C)(C)OC(=O)c1cccc(Br)c1
inactive: [5] 101 % of control | [6] 104 % of control | [7] 105 % of control

CCCCCc1c(C)[nH]n(C(N)=NCCSCc2nc[nH]c2C)c1=O
inactive: [8] 100 % of control | [9] 102 % of control | [10] 91 % of control

N#CC(CCCC(C#N)(c1ccccc1)c1ccccc1)(c1ccccc1)c1ccccc1
inactive: dose: 100.0 mg/kg/injection, schedule: Q01DX001 (ip), vehicle: Klucel (hydroxypropylcellulose) (HPC) 100 % of control | dose: 200.0 mg/kg/injection, schedule: Q01DX001 (ip), vehicle: Klucel (hydroxypropylcellulose) (HPC) 101 % of control | dose: 400.0 mg/kg/injection, schedule: Q01DX001 (ip), vehicle: Klucel (hydroxypropylcellulose) (HPC) 105 % of control

COC1C(CO)OC(n2cnc3c(=S)nc(N)[nH]c32)C1O (stereo unspecified)
inactive: [12] 122 % of control | dose: 264.0 mg/kg/injection, schedule: Q04DX003 (ip), vehicle: saline with Tween-80 109 % of control

Nc1ccc(-c2c[nH]c(=O)c([N+](=O)[O-])c2)cc1
inactive: [11] 99 % of control | [12] 99 % of control | [13] 100 % of control

CCCCC(=O)N1C(=O)/C(=C\N(C)C)c2cc(C=O)ccc21
inactive: [11] 90 % of control | [12] 90 % of control | [13] 90 % of control

CCN(CC)CCNc1ccc(COC(=O)NC)c2sc3ccccc3c(=O)c12
inactive: dose: 1.56 mg/kg/injection, schedule: Q01DX009 (ip), vehicle: saline with Tween-80 116 % of control | dose: 3.12 mg/kg/injection, schedule: Q01DX009 (ip), vehicle: saline with Tween-80 122 % of control | dose: 6.25 mg/kg/injection, schedule: Q01DX009 (ip), vehicle: saline with Tween-80 119 % of control

CC1Cn2c(c(-c3ccccc3)c(=O)[nH]c2=S)O1 (stereo unspecified)
inactive: [11] 100 % of control | [12] 98 % of control | [13] 91 % of control

CCOc1cc2c(C)c3ccccc3c(C)c2c2ccccc12
inactive: dose: 42.0 mg/kg/injection, schedule: Q01DX009 (ip), vehicle: saline with Tween-80 98 % of control | dose: 50.0 mg/kg/injection, schedule: Q04DX003 (ip), vehicle: other 88 % of control | dose: 84.0 mg/kg/injection, schedule: Q01DX009 (ip), vehicle: saline with Tween-80 94 % of control | dose: 100.0 mg/kg/injection, schedule: Q04DX003 (ip), vehicle: other 86 % of control | dose: 168.0 mg/kg/injection, schedule: Q01DX009 (ip), vehicle: saline with Tween-80 107 % of control | dose: 400.0 mg/kg/injection, schedule: Q04DX003 (ip), vehicle: other 86 % of control

O=c1[nH]c2c(Cl)c(Cl)c(Cl)c(Cl)c2[nH]c1=O
inactive: [5] 90 % of control | [6] 87 % of control

O=C(NC(=S)c1ccccc1)Nc1ccc(Cl)c(Cl)c1
inactive: dose: 8.0 mg/kg/injection, schedule: Q01DX009 (ip), vehicle: saline with Tween-80 100 % of control | dose: 16.0 mg/kg/injection, schedule: Q01DX009 (ip), vehicle: saline with Tween-80 99 % of control | dose: 32.0 mg/kg/injection, schedule: Q01DX009 (ip), vehicle: saline with Tween-80 87 % of control

Cn1c(=O)c2[nH]cnc2n(C)c1=O (tested in a mixture with another compound)
inactive: [11] 104 % of control | [12] 95 % of control | [13] 104 % of control
